Measurements as given in patent US20260125375A1 (Pfizer Inc., priority 2022, published 2026).
Where two headings read alike, the source gives them in different places.

Biological target: T1, C-CBL (Homo sapiens, UniProt P22681)
T1 construct: endogenous in cells; host or cells: Jurkat HiBit-IL2 reporter cells, CBL-B knocked out by CRISPR
Assay: Jurkat HiBit-IL2 assay (CBL-B KO), reporter cell line expressing C-CBL only
Format: cell-based
Details: geometric mean, read-out: CBL-B KO EC50 (nM) GMean
Method in brief: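 CRISPR knockout Jurkat HiBit-IL2 reporter cells (20,000/well) were preincubated 1 h with compounds (0.1% DMSO), then stimulated 4 h at 37 °C with anti-CD3 (1 μg/ml) and anti-CD28 (2 μg/ml) final. IL-2 was read by HiBiT lytic luminescence, normalized as fold over antibody-only baseline; EC50 reported as geometric mean.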

[1] = CBL-B KO (C-CBL only), anti-CD3/anti-CD28 stimulation 4 hours, Table 16a
[2] = CBL-B KO (expressing C-CBL only), Table 16b (further repetition)

| SMILES | EC50 [1] [nM] | EC50 [2] [nM] |
| --- | --- | --- |
| C[C@H](c1nc(C(F)(F)F)cc2c(-c3cccc(C4(Cc5nncn5C)COC4)c3)n[nH]c12)N1CC[C@@H](F)C1 (single isomer, unassigned) [Example D10] | 595 | – |
| C[C@H]1CN([C@@H](C)c2nc(C(F)(F)F)cc3c(-c4cccc(C5(Cc6nncn6C)COC5)c4)n[nH]c23)CCO1 (single isomer, unassigned) [Example D11] | 512 | – |
| C[C@H](c1nc(C(F)(F)F)cc2c(-c3cccc(C4(Cc5nncn5C)COC4)c3)n[nH]c12)N1CCO[C@@H](C)C1 (single isomer, unassigned) [Example D12] | 973 | – |
| C[C@@H]1CCCN([C@@H](C)c2nc(C(F)(F)F)cc3c(-c4cccc(C5(Cc6nncn6C)COC5)c4)n[nH]c23)C1 (single isomer, unassigned) [Example D13] | 539 | – |
| C[C@@H]1CCCN([C@H](C)c2nc(C(F)(F)F)cc3c(-c4cccc(C5(Cc6nncn6C)COC5)c4)n[nH]c23)C1 (single isomer, unassigned) [Example D14] | 2010 | – |
| C[C@H](N[C@@H]1CCC[C@@H]1O)c1nc(C(F)(F)F)cc2c(-c3cccc([C@H](c4nncn4C)C4CCC4)c3)n[nH]c12 (single isomer, unassigned) [Example D15] | 20 | 11 |
| C[C@@H](N[C@@H]1CCC[C@@H]1O)c1nc(C(F)(F)F)cc2c(-c3cccc([C@H](c4nncn4C)C4CCC4)c3)n[nH]c12 (single isomer, unassigned) [Example D16] | 188 | – |
| C[C@H](O)CN[C@@H](C)c1nc(C(F)(F)F)cc2c(-c3cccc([C@H](c4nncn4C)C4CCC4)c3)n[nH]c12 (single isomer, unassigned) [Example D19] | 132 | 157 |
| C[C@@H](N[C@H]1CC[C@@H]1O)c1nc(C(F)(F)F)cc2c(-c3cccc([C@H](c4nncn4C)C4CCC4)c3)n[nH]c12 (single isomer, unassigned) [Example D22] | 79 | 91 |
| C[C@H](N[C@@H]1CC[C@@H]1O)c1nc(C(F)(F)F)cc2c(-c3cccc([C@H](c4nncn4C)C4CCC4)c3)n[nH]c12 (single isomer, unassigned) [Example D28] | 4 | – |
| C[C@H](NC1CC[C@H]1O)c1nc(C(F)(F)F)cc2c(-c3cccc([C@H](c4nncn4C)C4CCC4)c3)n[nH]c12 (single isomer, unassigned) [Example D30] | 43 | 52 |
| C[C@H](NC1CC(F)(F)C1)c1nc(C(F)(F)F)cc2c(-c3cccc([C@H](c4nncn4C)C4CCC4)c3)n[nH]c12 (single isomer, unassigned) [Example D90] | – | 313 |
| C[C@@H](NC1CC(F)(F)C1)c1nc(C(F)(F)F)cc2c(-c3cccc([C@H](c4nncn4C)C4CCC4)c3)n[nH]c12 (single isomer, unassigned) [Example D91] | – | 238 |
| Cn1cnnc1[C@@H](c1cccc(-c2n[nH]c3c(CN[C@H]4CCC(F)(F)C4)nc(C(F)(F)F)cc23)c1)C1CCC1 (single isomer, unassigned) [Example G1] | 775 | – |
| Cn1cnnc1[C@@H](c1cccc(-c2n[nH]c3cnc(C(F)(F)F)cc23)c1)C1CCC1 [Example A1, 3-{3-[(R)-cyclobutyl(4-methyl-4H-1,2,4-triazol-3-yl)methyl]phenyl}-5-(trifluoromethyl)-1H-pyrazolo[3,4-c]pyridine] | > 5280 | 4500 |
| Cn1cnnc1CC1(c2cccc(-c3n[nH]c4cnc(C(F)(F)F)cc34)c2)COC1 [Example B1, 3-(3-(3-((4-methyl-4H-1,2,4-triazol-3-yl)methyl)oxetan-3-yl)phenyl)-5-(trifluoromethyl)-1H-pyrazolo[3,4-c]pyridine] | > 9980 | – |
| Cn1cnnc1CC1(c2cccc(-c3n[nH]c4ncc(C(F)(F)F)cc34)c2)COC1 [Example B3, 3-(3-{3-[(4-methyl-4H-1,2,4-triazol-3-yl)methyl]oxetan-3-yl}phenyl)-5-(trifluoromethyl)-1H-pyrazolo[3,4-b]pyridine] | 4060 | – |
